Source: the supplement of paper PMC10307832

Assays:
Test in all cases: relative viability (nuclei count vs DMSO), 5 days (fraction); higher = more cells survive
Crenolanib + Pemetrexed = compound: CC1(COc2ccc3c(c2)ncn3-c2ccc3cccc(N4CCC(N)CC4)c3n2)COC1 [Crenolanib] + Nc1nc2[nH]cc(CCc3ccc(C(=O)N[C@@H](CCC(=O)O)C(=O)O)cc3)c2c(=O)[nH]1 [Pemetrexed] (partner 0.2 µM)
In short: (§1)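 Lung cancer cell lines were pin-tool dosed in 1536-well plates on the day after seeding, with either a lone drug or a fixed anchor-drug dose plus five library-drug doses (not always all listed) in √10 steps. Nuclei were counted on 4× images after 5 days. Relative viability is the ratio of treated-well to vehicle-well nuclei counts, with each value a median of duplicate plates.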

Crenolanib + AZD7762 = compound: CC1(COc2ccc3c(c2)ncn3-c2ccc3cccc(N4CCC(N)CC4)c3n2)COC1 [Crenolanib] + NC(=O)Nc1cc(-c2cccc(F)c2)sc1C(=O)N[C@H]1CCCNC1 [AZD7762] (partner 0.2 µM)
In short: as §1

Tivantinib + Phenformin = compound: O=C1NC(=O)[C@@H](c2cn3c4c(cccc24)CCC3)[C@@H]1c1c[nH]c2ccccc12 [Tivantinib] + N=C(N)NC(=N)NCCc1ccccc1 [Phenformin] (partner 250 µM)
In short: as §1

Crenolanib + Tozasertib = compound: CC1(COc2ccc3c(c2)ncn3-c2ccc3cccc(N4CCC(N)CC4)c3n2)COC1 [Crenolanib] + Cc1cc(Nc2cc(N3CCN(C)CC3)nc(Sc3ccc(NC(=O)C4CC4)cc3)n2)n[nH]1 [Tozasertib] (partner 0.1 µM)
In short: as §1

| Cell Line | relative viability (Crenolanib + Pemetrexed; first compound 0.01 µM) | relative viability (Crenolanib + Pemetrexed; first compound 0.03162 µM) | relative viability (Crenolanib + Pemetrexed; first compound 0.1 µM) | relative viability (Crenolanib + Pemetrexed; first compound 0.3162 µM) | relative viability (Crenolanib + Pemetrexed; first compound 1 µM) | relative viability (Crenolanib + AZD7762; first compound 0.01 µM) | relative viability (Crenolanib + AZD7762; first compound 0.03162 µM) | relative viability (Crenolanib + AZD7762; first compound 0.1 µM) | relative viability (Crenolanib + AZD7762; first compound 0.3162 µM) | relative viability (Crenolanib + AZD7762; first compound 1 µM) | relative viability (Tivantinib + Phenformin; first compound 0.01 µM) | relative viability (Tivantinib + Phenformin; first compound 0.03162 µM) | relative viability (Tivantinib + Phenformin; first compound 0.1 µM) | relative viability (Tivantinib + Phenformin; first compound 0.3162 µM) | relative viability (Crenolanib + Tozasertib; first compound 0.01 µM) | relative viability (Crenolanib + Tozasertib; first compound 0.3162 µM) | relative viability (Crenolanib + Tozasertib; first compound 1 µM) | relative viability (Crenolanib + Tozasertib; first compound 0.03162 µM) | relative viability (Crenolanib + Tozasertib; first compound 0.1 µM) |
| --- | --- | --- | --- | --- | --- | --- | --- | --- | --- | --- | --- | --- | --- | --- | --- | --- | --- | --- | --- |
| NCI-H2347 | 0.4 | 0.425 | 0.397 | 0.447 | 0.436 | 0.815 | 0.772 | 0.678 | 0.818 | 0.85 | 0.514 | 0.375 | 0.389 | 0.377 | 0.646 | 0.454 | 0.48 | – | – |
| NCI-H2405 | 1.11 | – | 0.869 | 1.11 | 1.06 | 0.801 | – | 0.554 | 0.773 | 0.646 | 0.437 | 0.38 | 0.367 | 0.473 | 0.859 | 0.502 | 0.691 | 0.737 | – |
| NCI-H3122 | 0.205 | 0.212 | 0.203 | 0.203 | 0.18 | 1.02 | 0.958 | 1.02 | 1.04 | 0.996 | 0.369 | 0.394 | 0.359 | 0.361 | 0.406 | 0.334 | 0.452 | 0.399 | 0.373 |
| PC-3 [JPC-3] | 1.11 | – | 1.01 | 1.21 | 0.889 | 0.761 | – | 0.832 | 0.78 | 0.752 | 0.459 | 0.494 | 0.506 | 0.355 | 0.889 | 0.902 | 0.87 | 0.856 | 0.81 |
| PC-14 | 0.137 | 0.127 | 0.16 | 0.133 | 0.143 | 0.39 | 0.305 | 0.36 | 0.281 | 0.328 | 0.516 | 0.454 | 0.611 | 0.341 | 0.697 | 0.533 | 0.413 | 0.573 | 0.554 |
| RERF-LC-KJ | 0.474 | 0.516 | 0.457 | 0.479 | 0.447 | 1.19 | 0.739 | 0.896 | 0.894 | 1.04 | 0.454 | 0.442 | 0.407 | 0.335 | 0.532 | 0.487 | 0.461 | 0.469 | 0.527 |
| SW 900 | 0.502 | – | 0.48 | 0.509 | 0.484 | 0.735 | – | 0.756 | 0.858 | 0.522 | 0.693 | 0.527 | 0.573 | 0.474 | 0.62 | 0.457 | 0.516 | 0.675 | 0.547 |
